{"source": "BindingDB's records for patent US11248013", "about": "(Rakovina Therapeutics, 2022)", "molecular_target": "Poly [ADP-ribose] polymerase 1 (Homo sapiens, UniProt P09874)", "sequence (P09874 whole entry)": "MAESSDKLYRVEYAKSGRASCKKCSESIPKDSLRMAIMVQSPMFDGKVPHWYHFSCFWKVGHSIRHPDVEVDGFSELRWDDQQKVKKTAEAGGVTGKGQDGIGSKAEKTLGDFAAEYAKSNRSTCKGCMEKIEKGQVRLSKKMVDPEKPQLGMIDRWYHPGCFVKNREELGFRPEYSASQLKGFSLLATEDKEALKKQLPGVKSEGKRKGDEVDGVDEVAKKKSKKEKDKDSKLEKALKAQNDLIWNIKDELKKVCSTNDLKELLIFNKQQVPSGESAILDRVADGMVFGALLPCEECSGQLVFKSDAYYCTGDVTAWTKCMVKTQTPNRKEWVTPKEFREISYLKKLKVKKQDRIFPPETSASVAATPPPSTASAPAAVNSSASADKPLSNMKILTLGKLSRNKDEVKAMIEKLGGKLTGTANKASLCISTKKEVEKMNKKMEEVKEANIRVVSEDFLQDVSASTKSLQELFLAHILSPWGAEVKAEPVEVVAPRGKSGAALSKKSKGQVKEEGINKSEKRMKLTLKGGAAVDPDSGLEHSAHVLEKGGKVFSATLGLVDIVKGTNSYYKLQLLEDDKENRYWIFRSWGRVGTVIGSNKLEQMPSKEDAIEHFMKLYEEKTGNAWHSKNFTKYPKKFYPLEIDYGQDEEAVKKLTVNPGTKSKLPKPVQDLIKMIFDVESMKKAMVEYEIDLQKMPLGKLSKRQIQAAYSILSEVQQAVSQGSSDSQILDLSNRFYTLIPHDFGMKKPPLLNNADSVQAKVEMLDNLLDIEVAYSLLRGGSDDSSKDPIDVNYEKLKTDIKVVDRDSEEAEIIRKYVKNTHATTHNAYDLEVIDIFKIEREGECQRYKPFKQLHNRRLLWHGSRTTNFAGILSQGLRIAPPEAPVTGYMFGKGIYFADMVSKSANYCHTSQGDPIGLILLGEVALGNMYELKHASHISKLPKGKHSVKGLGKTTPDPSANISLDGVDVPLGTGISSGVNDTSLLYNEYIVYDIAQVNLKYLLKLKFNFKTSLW", "assay": "Enzyme Assay", "protocol": "Inhibition of PARP-1 enzymatic activities was measured using an HT Universal Colorimetric PARP Assay Kit (Trevigen, catalogue #4677-096-K) following the standard procedures. Serial dilutions of PARP compounds were added to appropriate wells. The compound was incubated with PARP enzyme at RT for 10 min, and the reaction was initiated by addition of the PARP substrate cocktail, Each concentration of compound was tested in triplicate wells. After 15 min reaction, the reaction was stopped, and the Strep-HRP was added into each well and incubated for 1 h at RT. After addition of TACS-Sapphire colorimetric substrate and incubated in dark for 15 min, the OD450 was read out with an EnVision instrument. IC50 values (the concentration at which 50% of the enzyme activity is inhibited) were calculated, which are determined over a range of different concentrations, normally from 10 uM to 0.1 nM."}
{"molecule": "CC(C)(C)C(=O)N1CCP(=O)(c2cc(Cc3n[nH]c(=O)c4ccccc34)ccc2F)CC1", "note": "[US11248013, Example 10]", "values": [{"measurement": "IC50", "value": "in the range around 550 nM"}]}
